Data on one molecule can be found in patent publication US10927348B2, “Human adipose tissue white and ‘brown-on-white’ progenitors for reconstructive and metabolic therapies” (University of Massachusetts, priority 2014, dated 2021).

The assay relates to differentiated HACAPS. The experiment in a line: RT-PCR gene expression in differentiated HACAPS exposed to forskolin or isoproterenol. The class given is cell-based, human. To be noted: isoproterenol for 6 hours after adipogenic differentiation, hydrochloride.

The structures appear in SMILES notation. “Also recorded” adds a separate entry of the source. Structures can show the parent of a compound that is named as a salt.

For `CC(C)NCC(O)c1ccc(O)c(O)c1` (stereo not shown) [isoproterenol, Isoproterenol hydrochloride], the “UCP1 mRNA expression” value was “acute increase; also recorded: pronounced increase”.
